A melting point compilation (Tetko et al.; mined from patent text by program, amines drawn as free bases though some values may be those of a salt)

melting point [°C] | Compound
152 | COc1c(C)cc(-c2cc(-c3ccc(S(C)(=O)=O)cc3)c(N3CCOCC3)s2)nc1C
273 | Cc1cc(-c2cc(C(F)(F)F)n3ncc(-c4nc(-c5ccc(S(N)(=O)=O)cc5)no4)c3n2)ccc1C(F)(F)F
193 to 194 | Nc1ncnc2c1c(-c1cccc(O)c1)cn2C1CC(CN2CCCC2)C1 (centres undefined)
124 to 128 | CCCCCCCCCCC(O)CNCCCCCCNCC(O)CCCCCCCCCC (centres undefined)
160 to 162 | CC(=O)OC1CSC(Oc2cnc(-c3ccccc3)c(F)c2)C(OC(C)=O)C1OC(C)=O (centres undefined)
82 to 83 | FCCCCNc1cn(-c2cccnc2)nc1Cl
150 | CSc1ccc(C=CC(=O)c2cccc([N+](=O)[O-])c2)cc1
198 to 200 | C/C(=C\C(N)=O)c1ccc2c(c1)C(C)(C)OC(=O)N2
76 to 78 | Cn1nc(-c2ncc(Cl)cc2F)c(Cl)c1C(F)(F)F
70.4 | N#CC(c1ccccc1)c1ccc([N+](=O)[O-])cc1C(F)(F)F (centres undefined)
45.5 to 47 | CCOC(=O)C1=Cc2c(F)cccc2OC1C(F)(F)F (centres undefined)
193 to 195 | CC(c1oc2ccccc2c(=O)c1-c1cccc(F)c1)n1nc(-c2ccc(O)c(O)c2)c2c(N)ncnc21 (centres undefined)
130 to 133 | O=S(=O)(Nc1nc(Cl)cnc1OCc1ccco1)c1ccc(Cl)s1
144 to 146 | COc1ccc(S(=O)(=O)C2CC(=O)NC2=O)cc1 (centres undefined)
108 to 109 | Cc1c(Cc2cccc(C(F)(F)F)c2)oc2cccc(-c3cccc(C(=O)NCCC#N)c3)c12
140 to 141 | COc1ccc2c(c1)C(C(=O)O)c1cccnc1CO2 (centres undefined)
75 to 77 | COc1nc(C(F)(F)C(F)(F)F)c(F)c(=O)n1-c1cc(C(=O)OC(C)C)c(Cl)cc1F
120 to 123 | COc1ccc(NN=C(Sc2ccccc2)C(C)=O)cc1
56.6 to 57.5 | CCCCCCCCCCOC(C)c1ccc(C(=O)O)cc1 (single isomer, unassigned; (+))
208 | N#CCCNC1(CC2CCCCC2)C(=O)Nc2ccc(Cl)cc21 (centres undefined)
134 to 135 | CCCC12C=CC=CC1C(=O)N(c1nc(C#N)c(C#N)[nH]1)C2=O (centres undefined)
126 to 128 | CCCCCCCC[C@H](C(=S)Nc1c(SC)ccc2ncccc12)c1ccccc1
138 | CC(OC(=O)c1ccc(C(=O)O)cc1)c1ccc2c(c1)C(C)(C)CCC2(C)C (single isomer, unassigned; (-))
114 | COc1ccc([C@@H]2CCc3cc(OC)ccc3[C@@H]2Cn2ccnc2)cc1 (relative stereo)
106 to 108 | CCN(CC)CCNC(=O)c1c(I)ccc2c1Nc1ccccc1C2

melting point [°C] | Compound
148 to 152 | CN1C(=O)C=C(c2ccccc2)C1(C)O (centres undefined)
96 to 97 | COC(=O)c1cc2sccc2s1
98 | CC(C)OC(=O)C=CC1C(C(=O)O)C1(C)C (centres undefined)
218 | COc1cc2[nH]cc(-c3cc4cc(F)cnc4n3S(=O)(=O)c3ccc(C)cc3)c2cc1OC
187 to 202 | Nc1cccc(-c2ccc(C3(O)C4CCC3CN(Cc3ccco3)C4)cc2)n1 (centres undefined)
125 to 126 | COc1ccccc1OCCNCCCc1c[nH]c2ccc(F)cc12
146 to 148 | N#CC(Oc1nsnc(Cl)c1=O)c1cccc(Oc2ccccc2)c1 (centres undefined)
270 | CC(C)C1NC(=O)C(CSSCC2NC(=O)C(C(C)C)NC2=O)NC1=O (centres undefined)
170 to 171 | COc1cc(C#N)ccc1C=NO
120 to 122 | O=Cc1cccc2c1CN(c1ccccc1)C2
210 | CC(C)Cc1nc2cc(C(c3cccc(Cl)c3)n3ccnc3)ccc2[nH]c1=O (centres undefined)
187 to 192 | Cc1c(C#N)c(=O)oc2ccc(Br)cc12
188 to 190 | Cn1ncc(NCCN2CCN(c3cccc4c3OCCO4)CC2)cc1=O
173 to 174 | O=S(=O)(Nc1ccc2oncc2c1)c1cc(Cl)ccc1Cl
73 to 75 | O[C@H]1c2ccc(OCc3ccccc3)cc2OC[C@H]1Oc1cccnc1 (relative stereo)
206 to 207 | CC(=O)Nc1ccc(C(=O)SC[C@@H](C)C(=O)N2CSC[C@H]2C(=O)O)cc1
175 to 184 | COc1ccc(Nc2ccc(Nc3ccnc4cc(-c5cccc([N+](=O)[O-])c5)sc34)cc2)cc1
105 to 108 | OC1c2ccc(Cl)cc2OCc2cccnc21 (centres undefined)
82 to 83 | COc1cc(COC(=O)NCCN2CCOCC2)ccc1OC(C)=O
61 to 62 | COC(=O)C(=O)c1ccc(OCCCOc2ccccc2)cc1
142 to 143 | CC(=O)Nc1ccc(C(=O)Oc2ccccc2)c(OC(C)=O)c1
174 to 177 | C[C@@H]1Cc2ccsc2[C@H](C)N1CCNC(=O)c1ccc(NC(=O)C(F)(F)F)cc1 (relative stereo)
152 | CC(=O)OC1CSC(Oc2cccc3ccoc23)C(OC(C)=O)C1OC(C)=O (centres undefined)
70 to 73 | C#CC1(Oc2ccc(F)cc2[N+](=O)[O-])CCN(C)CC1
38 to 39 | ClCC1OCC(OCc2ccccc2)CO1 (centres undefined)

melting point [°C] | Compound
50 to 52 | CCCc1c(OCCCOc2cc(O)c(-c3ccc(F)cc3)cc2CC)cccc1C(=O)c1ccccc1C(=O)O
97 to 99 | CCOC(=O)c1c(C(F)(F)F)ncc(C(=O)O)c1OC(C)C
158 to 160 | COc1ccc(C2=NN(C3CCN(S(=O)(=O)c4cccc(C#N)c4)CC3)C(=O)C(C)(C)C2)cc1OC
52 to 53 | COCCCOc1cc(C[C@@H](CBr)C(C)C)ccc1OC
231 to 233 | COc1ccc2[nH]c3c(c2c1)CCS(=O)(=O)CCC3
136 to 138 | CC[C@H](NC(=O)OC(C)(C)C)c1nc2c(C(F)(F)F)cccc2c(=O)o1
139 to 140 | O=C(O)c1ccccc1CSc1ccc(Br)cc1
115 to 118 | O=C(CCNC(=O)OCc1ccccc1)NCCSC(=O)c1ccccc1
158 to 160 | O=C(O)CCCCN1C(=O)c2cccc([N+](=O)[O-])c2C1=O
226 to 228 | Cn1cc(C(=O)O)c(=O)c2cc3cc(F)c(N4CCNC(c5ccc(OCCO)cc5)C4)c(F)c3nc21 (racemic)
219 to 220 | Cc1nnc(-c2ccc3occ(-c4ccc(S(C)=O)cc4)c3n2)o1 (centres undefined)
255 to 256 | CC1Nc2ccc(S(=O)(=O)N3CCCCC3)cc2S(=O)(=O)N1 (centres undefined)
113 to 114 | COc1ccc2[nH]c(S(=O)Cc3nccc(N(C)C)c3Cl)nc2c1 (centres undefined)
197 to 199 | Cn1nnc(-c2[nH]c3ccccc3c2Cl)n1
114 to 115 | CCSc1cnc(Oc2ccc(Cl)c(Cl)c2)c(C#N)c1
87 to 100 | CC(=O)Nc1ccc(C[C@H](NC(=O)N(CCOC(C)=O)CCc2ccccc2)C(=O)NCCN(C)C)cc1
192 to 193 | CC1(O)CCN(Cc2ccc(C#CC(=O)Nc3ccc(-c4ccc(Cl)cc4)cc3)cc2)CC1
178 to 179 | CCCCc1nc(I)c(C=O)n1Cc1ccc(C(=O)OC)c2ccccc12
85 to 87 | CNc1ccccc1C(=O)COC(=O)c1ccccc1
173 to 174 | O=C(CCC(=O)N1CCN(c2ccc(N3C[C@H](CNC(=S)C4CC4)OC3=O)cc2F)CC1)c1ccc(CN2CCOCC2)cc1
77 to 78 | CS(=O)(=O)N(CCc1ccc(Cl)cc1)Cc1cccnc1
226 | CC(F)C(C)(N)C(=O)O (centres undefined)
198 to 200 | COc1cc(Nc2c(C#N)cnc3cc(OCc4ccccc4)c(OC)cc23)c(Cl)cc1Cl
293 to 295 | O=C1Cc2c(cccc2NC(=O)c2cccn(-c3ccc(F)cc3)c2=O)N1
95 to 96 | O[C@@H]1C=CC=C(Cl)[C@@H]1O (relative stereo)

melting point [°C] | Compound
215 to 218 | c1cnc2ccc(Cn3nnc4ccc(-c5cn[nH]c5)nc43)cc2c1
160 to 163 | CCOC(=O)C(Cc1ccc(C#N)cc1)(NC(C)=O)C(=O)OCC
108 | CC12CCC(C(=Cc3ccc(CI)cc3)C1=O)C2(C)C (centres undefined)
158 to 160 | COc1ccc(C(=O)Nc2c(F)cccc2F)cc1OC1CCCC1
201 to 203 | O=c1c(CCCl)n[nH]c2ccccc12
215 | COCCOc1cccc2cc(-c3nnn[nH]3)c(=O)oc12
> 300 | c1ccc(-c2ccc3c(c2)sc2c4ccc(-c5ccccc5)cc4sc32)cc1
105 to 125 | COc1ccccc1NC(=O)Nc1nc(Oc2ccc3ccccc3c2)nc(N(CCC(=O)O)Cc2cccc(C)c2)n1
214 to 216 | Cc1cc2ncc(C(=O)O)nc2cc1C
122 to 124 | CCCCOc1cc(C(=O)O)cc(N)c1-c1ccccc1
117 to 120 | CC1(C)OC[C@H](Cc2ccccc2)N1C(=O)Cn1cc(I)cn1
250 to 251 | Nc1ncc(C#Cc2ccc(Cl)cc2)c(Oc2ccc(O)cc2)n1
78 to 79 | CN(C[C@H](O)[C@@H](O)[C@H](O)[C@H](O)CO)C(=O)CCCO
> 260 | CC(=O)Nc1ccc(NCc2cnc3nc(N)nc(N)c3n2)cc1
186 to 189 | CC(=O)Nc1ccc(C(=O)N2CC3CNCC(C3)C2)cc1
170 to 172 | COCCCNc1nc(N)c(C(=O)c2ccccc2[N+](=O)[O-])s1
140 to 141 | Cc1cc(CO)cc(Oc2nc(Cl)nc(Cl)c2C(C)C)c1
123 to 126 | CCCCCS(=O)(=O)NC(=O)CCc1ccc(OCCN2CCCC2=O)cc1Oc1ncc(C(F)(F)F)cc1Cl
155 to 160 | COc1cccc(CCNC2(c3ccccc3Cl)C(=O)Nc3ccc(Cl)cc32)c1 (centres undefined)
212 | CC(=O)N1C(=O)N(c2cc(Cl)cc(Cl)c2)C(=O)C1=Cc1ccc(C#N)cc1
194 to 195 | CCc1cnc2c(NC(=O)c3c(Cl)cccc3Cl)cccc2c1C(C)=O
172 to 175 | CSc1ccccc1-c1ccc(C(=O)N2Cc3ccc(C(=O)NCc4cccnc4)n3Cc3ccccc32)cc1

Compound | melting point [°C]
CC(C)OC(=O)Nc1cccc(-c2ccnc3c(C(=O)c4ccsc4)cnn23)c1 | 122 to 124
Cc1c(C(=O)CCl)csc1C(=O)CCl | 155 to 156
